Results taken from patent US9302999B2, “Substituted triazoles as herbicides” (E. I. DU PONT DE NEMOURS AND COMPANY, priority 2012, dated 2016).

Columns and labels:
Format in all cases: in vivo
[1] = tested on: barnyardgrass (Echinochloa crus-galli); test: Test A pre-/postemergence: barnyardgrass
Method in brief: (§1)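 Rating scale 0–100 (100 = complete control), visual, ~10 days after application in the greenhouse. Applications: preemergence directed soil spray; postemergence at 1–2 leaves.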

[2] = tested on: morningglory (Ipomoea spp.); test: Test A pre-/postemergence: morningglory; details: for Morningglory plant response rating: visual rating on 0 to 100 scale (0 no effect, 100 complete control), approximately ten days
Method in brief: as §1

corn (Zea mays) = test: Test A pre-/postemergence: corn
Method in brief: as §1

[3] = tested on: ryegrass, Italian (Italian ryegrass, Lolium multiflorum); test: Test C pre-/postemergence: ryegrass, Italian
Method in brief: (§2)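 Preemergence on seeds in loam/sand, postemergence on 2–18 cm (1–4-leaf) plants in peat-based medium; compounds in non-phytotoxic solvent with surfactant. After 13–15 days in greenhouse, visual rating versus controls, 0 (no effect) to 100 (complete control).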

[4] = tested on: winter wheat (Triticum aestivum); test: Test C pre-/postemergence: winter wheat
Method in brief: as §2

[5] = tested on: galium (catchweed bedstraw, Galium aparine); test: Test C pre-/postemergence: galium
Method in brief: as §2

[6] = tested on: large crabgrass (Digitaria sanguinalis); test: Test C pre-/postemergence: large crabgrass
Method in brief: as §2

[7] = tested on: johnsongrass (Sorghum halepense); test: Test C pre-/postemergence: johnsongrass
Method in brief: as §2

kochia (Kochia scoparia) = test: Test C pre-/postemergence: kochia
Method in brief: as §2

[8] = tested on: nutsedge, yellow (yellow nutsedge, Cyperus esculentus); test: Test C pre-/postemergence: nutsedge, yellow
Method in brief: as §2

[9] = tested on: pigweed (Amaranthus retroflexus); test: Test C pre-/postemergence: pigweed
Method in brief: as §2

[10] = Postemergence, 125 g ai/ha, 0 to 100 scale, 0 is no effect, 100 is complete control
[11] = Postemergence, 500 g ai/ha, visual rating on 0 to 100 scale (0 no effect, 100 complete control), approximately ten days
[12] = Preemergence, 125 g ai/ha, 0 to 100 scale where 0 is no effect and 100 is complete control
[13] = Preemergence, 500 g ai/ha, 0 to 100 scale (0 no effect, 100 complete control)
[14] = Postemergence, 31 g ai/ha, scale 0 to 100 (0 no effect, 100 complete control)
[15] = Postemergence, 62 g ai/ha, scale 0 to 100 (0 no effect, 100 complete control)
[16] = Postemergence, 125 g ai/ha, scale 0 to 100, 0 no effect, 100 complete control
[17] = Postemergence, 250 g ai/ha, scale 0 to 100
[18] = Preemergence, 31 g ai/ha, scale of 0 to 100, 0 is no effect, 100 is complete control
[19] = Preemergence, 62 g ai/ha, scale of 0 to 100, 0 is no effect, 100 is complete control
[20] = Preemergence, 125 g ai/ha, scale 0 to 100, 0 no effect, 100 complete control
[21] = Preemergence, 250 g ai/ha, scale 0 to 100, 0 no effect, 100 complete control

Cc1nn(-c2ccc(C(F)(F)F)c(F)c2)nc1Oc1ccnc(C(F)(F)F)c1 [Compound 148]
90: Barnyardgrass plant response rating [1, 11] | Plant response rating, Barnyardgrass [1, 12] | Morningglory plant response rating ([2]; Postemergence, 500 g ai/ha) | Plant response rating, Morningglory [2, 13] | Plant response rating, Ryegrass, Italian [3, 21] | Plant response rating, Galium [5, 15] | Plant response rating, Galium [5, 16] | Plant response rating, Galium [5, 17] | Plant response rating, Kochia (kochia (Kochia scoparia); [20])
0: Plant response rating, Nutsedge, Yellow [8, 18]
35: Plant response rating, Ryegrass, Italian [3, 15] | Plant response rating, Wheat [4, 21]
20: Corn plant response rating (corn (Zea mays); [10]) | Plant response rating, Corn (corn (Zea mays); [13]) | Plant response rating, Wheat [4, 14] | Plant response rating, Johnsongrass [7, 14] | Plant response rating, Johnsongrass [7, 15]
55: Plant response rating, Johnsongrass [7, 16]
98: Plant response rating, Johnsongrass [7, 17] | Plant response rating, Johnsongrass [7, 20] | Plant response rating, Johnsongrass [7, 21] | Plant response rating, Pigweed [9, 15] | Plant response rating, Pigweed [9, 16] | Plant response rating, Pigweed [9, 17]
30: Plant response rating, Wheat [4, 20]
15: Plant response rating, Crabgrass, Large [6, 14] | Plant response rating, Johnsongrass [7, 18] | Plant response rating, Nutsedge, Yellow [8, 16] | Plant response rating, Nutsedge, Yellow [8, 17]
95: Plant response rating, Kochia (kochia (Kochia scoparia); [17]) | Plant response rating, Kochia (kochia (Kochia scoparia); [21])
80: Barnyardgrass plant response rating [1, 10] | Plant response rating, Morningglory [2, 10] | Plant response rating, Galium [5, 14] | Plant response rating, Galium [5, 18] | Plant response rating, Crabgrass, Large [6, 17] | Plant response rating, Johnsongrass [7, 19] | Plant response rating, Kochia (kochia (Kochia scoparia); [14])
100: Plant response rating, Barnyardgrass [1, 13] | Plant response rating, Galium [5, 19] | Plant response rating, Galium [5, 20] | Plant response rating, Galium [5, 21] | Plant response rating, Crabgrass, Large [6, 18] | Plant response rating, Crabgrass, Large [6, 19] | Plant response rating, Crabgrass, Large [6, 20] | Plant response rating, Crabgrass, Large [6, 21] | Plant response rating, Pigweed [9, 18] | Plant response rating, Pigweed [9, 19] | Plant response rating, Pigweed [9, 20] | Plant response rating, Pigweed [9, 21]
25: Plant response rating, Wheat [4, 15]
40: Plant response rating, Morningglory [2, 12] | Corn plant response rating (corn (Zea mays); [11]) | Plant response rating, Wheat [4, 16] | Plant response rating, Wheat [4, 17] | Plant response rating, Kochia (kochia (Kochia scoparia); [18]) | Plant response rating, Kochia (kochia (Kochia scoparia); [19])
5: Plant response rating, Ryegrass, Italian [3, 18] | Plant response rating, Wheat [4, 19] | Plant response rating, Nutsedge, Yellow [8, 19] | Plant response rating, Nutsedge, Yellow [8, 20]
85: Plant response rating, Kochia (kochia (Kochia scoparia); [15]) | Plant response rating, Kochia (kochia (Kochia scoparia); [16])
65: Plant response rating, Ryegrass, Italian [3, 17] | Plant response rating, Pigweed [9, 14]
10: Plant response rating, Corn (corn (Zea mays); [12]) | Plant response rating, Ryegrass, Italian [3, 14] | Plant response rating, Nutsedge, Yellow [8, 14] | Plant response rating, Nutsedge, Yellow [8, 15]
60: Plant response rating, Ryegrass, Italian [3, 16] | Plant response rating, Ryegrass, Italian [3, 19] | Plant response rating, Ryegrass, Italian [3, 20] | Plant response rating, Crabgrass, Large [6, 15] | Plant response rating, Crabgrass, Large [6, 16]

CCc1nn(-c2ccc(F)cc2)nc1Cc1ccnc(C(F)(F)F)c1 [Compound 154]
90: Plant response rating, Barnyardgrass [1, 10] | Barnyardgrass plant response rating [1, 11] | Plant response rating, Ryegrass, Italian [3, 20] | Plant response rating, Ryegrass, Italian [3, 21] | Plant response rating, Crabgrass, Large [6, 18] | Plant response rating, Johnsongrass [7, 20] | Plant response rating, Kochia (kochia (Kochia scoparia); [14]) | Plant response rating, Kochia (kochia (Kochia scoparia); [15]) | Plant response rating, Kochia (kochia (Kochia scoparia); [16])
60: Plant response rating, Galium [5, 15]
20: Plant response rating, Morningglory [2, 12] | Plant response rating, Corn (corn (Zea mays); [12]) | Plant response rating, Wheat [4, 16] | Plant response rating, Crabgrass, Large [6, 14]
30: Plant response rating, Corn (corn (Zea mays); [10]) | Plant response rating, Ryegrass, Italian [3, 16] | Plant response rating, Ryegrass, Italian [3, 19] | Plant response rating, Wheat [4, 17] | Plant response rating, Crabgrass, Large [6, 15] | Plant response rating, Johnsongrass [7, 15]
55: Plant response rating, Wheat [4, 21]
95: Plant response rating, Johnsongrass [7, 21] | Plant response rating, Kochia (kochia (Kochia scoparia); [17]) | Plant response rating, Pigweed [9, 14] | Plant response rating, Pigweed [9, 15]
0: Plant response rating, Nutsedge, Yellow [8, 18]
65: Plant response rating, Johnsongrass [7, 16]
5: Plant response rating, Ryegrass, Italian [3, 14] | Plant response rating, Wheat [4, 19] | Plant response rating, Wheat [4, 20] | Plant response rating, Galium [5, 18]
98: Plant response rating, Pigweed [9, 16] | Plant response rating, Pigweed [9, 17]
80: Plant response rating, Morningglory [2, 10] | Plant response rating, Morningglory [2, 13] | Corn plant response rating (corn (Zea mays); [11])
10: Plant response rating, Ryegrass, Italian [3, 15] | Plant response rating, Ryegrass, Italian [3, 18] | Plant response rating, Wheat [4, 14] | Plant response rating, Johnsongrass [7, 14] | Plant response rating, Nutsedge, Yellow [8, 14] | Plant response rating, Nutsedge, Yellow [8, 15]
70: Plant response rating, Corn (corn (Zea mays); [13]) | Plant response rating, Galium [5, 16] | Plant response rating, Crabgrass, Large [6, 17]
75: Plant response rating, Galium [5, 17]
45: Plant response rating, Galium [5, 14] | Plant response rating, Crabgrass, Large [6, 16]
40: Plant response rating, Johnsongrass [7, 18] | Plant response rating, Johnsongrass [7, 19]
85: Plant response rating, Galium [5, 19] | Plant response rating, Galium [5, 20] | Plant response rating, Johnsongrass [7, 17]
35: Plant response rating, Ryegrass, Italian [3, 17]
15: Plant response rating, Wheat [4, 15] | Plant response rating, Nutsedge, Yellow [8, 16] | Plant response rating, Nutsedge, Yellow [8, 17]
100: Plant response rating, Barnyardgrass [1, 12] | Plant response rating, Barnyardgrass [1, 13] | Morningglory plant response rating ([2]; Postemergence, 500 g ai/ha) | Plant response rating, Galium [5, 21] | Plant response rating, Crabgrass, Large [6, 19] | Plant response rating, Crabgrass, Large [6, 20] | Plant response rating, Crabgrass, Large [6, 21] | Plant response rating, Pigweed [9, 18] | Plant response rating, Pigweed [9, 19] | Plant response rating, Pigweed [9, 20] | Plant response rating, Pigweed [9, 21]
